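Each compound was tested at five concentrations against cells in 96-well plates for 48 hours. Abbreviation: GI50, concentration required for 50% inhibition of growth. TGI: concentration producing complete growth inhibition.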
Assays:
Assay in all cases: growth of human tumour cells (NCI), 48 h
786-0 renal = test system: 786-0 renal
A549 NSCLC = test system: A549 NSCLC
ACHN renal = test system: ACHN renal
BT-549 breast = test system: BT-549 breast
CAKI-1 renal = test system: CAKI-1 renal
CCRF-CEM leukemia = test system: CCRF-CEM leukemia
COLO 205 colon = test system: COLO 205 colon
DU-145 prostate = test system: DU-145 prostate
EKVX NSCLC = test system: EKVX NSCLC
HCT-116 colon = test system: HCT-116 colon
HCT-15 colon = test system: HCT-15 colon
HL-60(TB) leukemia = test system: HL-60(TB) leukemia
HOP-62 NSCLC = test system: HOP-62 NSCLC
HOP-92 NSCLC = test system: HOP-92 NSCLC
HS 578T breast = test system: HS 578T breast
HT29 colon = test system: HT29 colon
IGROV1 ovarian = test system: IGROV1 ovarian
KM12 colon = test system: KM12 colon
LOX IMVI melanoma = test system: LOX IMVI melanoma
M14 melanoma = test system: M14 melanoma
MALME-3M melanoma = test system: MALME-3M melanoma
MCF7 breast = test system: MCF7 breast
MDA-MB-231 breast = test system: MDA-MB-231 breast
MDA-MB-435 = test system: MDA-MB-435
MOLT-4 leukemia = test system: MOLT-4 leukemia
NCI-H226 lung = test system: NCI-H226 lung
NCI-H23 lung = test system: NCI-H23 lung
NCI-H460 lung = test system: NCI-H460 lung
NCI-H522 lung = test system: NCI-H522 lung
NCI/ADR-RES ovarian = test system: NCI/ADR-RES ovarian
OVCAR-3 ovarian = test system: OVCAR-3 ovarian
OVCAR-4 ovarian = test system: OVCAR-4 ovarian
OVCAR-5 ovarian = test system: OVCAR-5 ovarian
OVCAR-8 ovarian = test system: OVCAR-8 ovarian
PC-3 prostate = test system: PC-3 prostate
RPMI-8226 leukemia = test system: RPMI-8226 leukemia
RXF 393 renal = test system: RXF 393 renal
SF-268 CNS = test system: SF-268 CNS
SF-295 CNS = test system: SF-295 CNS
SF-539 CNS = test system: SF-539 CNS
SK-MEL-2 melanoma = test system: SK-MEL-2 melanoma
SK-MEL-28 melanoma = test system: SK-MEL-28 melanoma
SK-MEL-5 melanoma = test system: SK-MEL-5 melanoma
SK-OV-3 ovarian = test system: SK-OV-3 ovarian
SN12C renal = test system: SN12C renal
SNB-19 CNS = test system: SNB-19 CNS
SW-620 colon = test system: SW-620 colon
T-47D breast = test system: T-47D breast
TK-10 renal = test system: TK-10 renal
U251 CNS = test system: U251 CNS
UACC-257 melanoma = test system: UACC-257 melanoma
UACC-62 melanoma = test system: UACC-62 melanoma
UO-31 renal = test system: UO-31 renal

`CN1C(=O)/C(=C/c2c(Cl)[nH]c3ccccc23)c2ccccc21` showed a GI50 (786-0 renal) of 32.4 µM, a TGI (786-0 renal) of over 100 µM and a GI50 (A549 NSCLC) of 79.7 µM. For the same compound, the TGI (A549 NSCLC) was over 100 µM, the GI50 (ACHN renal) was 32.9 µM and the TGI (ACHN renal) was over 100 µM. For the same compound, the GI50 (BT-549 breast) was 37.4 µM, the TGI (BT-549 breast) was 94.3 µM and the GI50 (CAKI-1 renal) was 29.8 µM. For the same compound, the TGI (CAKI-1 renal) was 89.5 µM, the GI50 (CCRF-CEM leukemia) was 29 µM and the TGI (CCRF-CEM leukemia) was over 100 µM. The GI50 (COLO 205 colon) was 18.1 µM, the TGI (COLO 205 colon) was 34.9 µM and the GI50 (DU-145 prostate) was 89.5 µM. For the same compound, the TGI (DU-145 prostate) was over 100 µM, the GI50 (EKVX NSCLC) was 75.2 µM and the TGI (EKVX NSCLC) was over 100 µM. The GI50 (HCT-116 colon) was 25.9 µM, the TGI (HCT-116 colon) was 87.8 µM and the GI50 (HCT-15 colon) was 34.1 µM. It also gave a TGI (HCT-15 colon) of over 100 µM, a GI50 (HL-60(TB) leukemia) of 32.6 µM and a TGI (HL-60(TB) leukemia) of 93.4 µM. The GI50 (HOP-62 NSCLC) was 31.3 µM, the TGI (HOP-62 NSCLC) was over 100 µM and the GI50 (HOP-92 NSCLC) was 37 µM. It also gave a TGI (HOP-92 NSCLC) of over 100 µM, a GI50 (HS 578T breast) of 28.9 µM and a TGI (HS 578T breast) of 72.9 µM. It also gave a GI50 (HT29 colon) of 25.5 µM, a TGI (HT29 colon) of 98.5 µM and a GI50 (IGROV1 ovarian) of 37.6 µM. For the same compound, the TGI (IGROV1 ovarian) was over 100 µM, the GI50 (KM12 colon) was 2.05 µM and the TGI (KM12 colon) was 10.1 µM. It also gave a GI50 (LOX IMVI melanoma) of 43.3 µM, a TGI (LOX IMVI melanoma) of over 100 µM and a GI50 (M14 melanoma) of 19.8 µM. For the same compound, the TGI (M14 melanoma) was 65.8 µM, the GI50 (MALME-3M melanoma) was 25.5 µM and the TGI (MALME-3M melanoma) was over 100 µM. The GI50 (MCF7 breast) was 53.7 µM, the TGI (MCF7 breast) was over 100 µM and the GI50 (MDA-MB-231 breast) was 39 µM. The TGI (MDA-MB-231 breast) was over 100 µM, the GI50 (MDA-MB-435) was 23.8 µM and the TGI (MDA-MB-435) was 59.9 µM. For the same compound, the GI50 (MOLT-4 leukemia) was 41.8 µM, the TGI (MOLT-4 leukemia) was over 100 µM and the GI50 (NCI-H226 lung) was 48.3 µM. It also gave a TGI (NCI-H226 lung) of over 100 µM, a GI50 (NCI-H23 lung) of 38.2 µM and a TGI (NCI-H23 lung) of over 100 µM. It also gave a GI50 (NCI-H460 lung) of 46.7 µM, a TGI (NCI-H460 lung) of over 100 µM and a GI50 (NCI-H522 lung) of 21.4 µM. The TGI (NCI-H522 lung) was 80.1 µM, the GI50 (NCI/ADR-RES ovarian) was 25.5 µM and the TGI (NCI/ADR-RES ovarian) was 61.2 µM. For the same compound, the GI50 (OVCAR-3 ovarian) was 22.6 µM, the TGI (OVCAR-3 ovarian) was 58.7 µM and the GI50 (OVCAR-4 ovarian) was 52.3 µM. For the same compound, the TGI (OVCAR-4 ovarian) was over 100 µM, the GI50 (OVCAR-5 ovarian) was 55.9 µM and the TGI (OVCAR-5 ovarian) was over 100 µM. It also gave a GI50 (OVCAR-8 ovarian) of 63.4 µM, a TGI (OVCAR-8 ovarian) of over 100 µM and a GI50 (PC-3 prostate) of 29.5 µM. It also gave a TGI (PC-3 prostate) of over 100 µM, a GI50 (RPMI-8226 leukemia) of 24.1 µM and a TGI (RPMI-8226 leukemia) of over 100 µM. The GI50 (RXF 393 renal) was 53.4 µM, the TGI (RXF 393 renal) was over 100 µM and the GI50 (SF-268 CNS) was 66.7 µM. The TGI (SF-268 CNS) was over 100 µM, the GI50 (SF-295 CNS) was 25.9 µM and the TGI (SF-295 CNS) was 85.5 µM. For the same compound, the GI50 (SF-539 CNS) was 33 µM, the TGI (SF-539 CNS) was 75.6 µM and the GI50 (SK-MEL-2 melanoma) was 45.1 µM. It also gave a TGI (SK-MEL-2 melanoma) of over 100 µM, a GI50 (SK-MEL-28 melanoma) of 35 µM and a TGI (SK-MEL-28 melanoma) of over 100 µM. The GI50 (SK-MEL-5 melanoma) was 14.6 µM, the TGI (SK-MEL-5 melanoma) was 51.2 µM and the GI50 (SK-OV-3 ovarian) was 25.8 µM. For the same compound, the TGI (SK-OV-3 ovarian) was 67.1 µM, the GI50 (SN12C renal) was 77.2 µM and the TGI (SN12C renal) was over 100 µM. The GI50 (SNB-19 CNS) was 35.4 µM, the TGI (SNB-19 CNS) was over 100 µM and the GI50 (SW-620 colon) was 35.8 µM. For the same compound, the TGI (SW-620 colon) was over 100 µM, the GI50 (T-47D breast) was 22.5 µM and the TGI (T-47D breast) was 71.2 µM. For the same compound, the GI50 (TK-10 renal) was 14 µM, the TGI (TK-10 renal) was 46.2 µM and the GI50 (U251 CNS) was 40.4 µM. For the same compound, the TGI (U251 CNS) was over 100 µM, the GI50 (UACC-257 melanoma) was over 100 µM and the TGI (UACC-257 melanoma) was over 100 µM. The GI50 (UACC-62 melanoma) was 37.4 µM, the TGI (UACC-62 melanoma) was over 100 µM and the GI50 (UO-31 renal) was 37.1 µM. It also gave a TGI (UO-31 renal) of over 100 µM.

From PubChem BioAssay (NCI)
